According to US11951151B2, “Compositions comprising antimicrobial peptides” (University of Pittsburgh—Of the Commonwealth System of …, priority 2019, dated 2024):
“Also recorded” adds a separate entry of the source.

Columns and labels:
[1] = test system: S. aureus SH1000 biofilm on PJI implant; assay: Periprosthetic Joint Infection Murine Washout Model (implant retrieved from mice, washed with peptide, CFU analysis); type: in vivo, Staphylococcus aureus; conditions: mouse
Excerpt: Periprosthetic Joint Infection Murine Washout Model. Twelve-week-old […] female mice (Jackson) were used for all experiments. Mice were anesthetized by 2% isoflurane, hair was removed from leg and treated with betadine. With a scalpel, a medial parapatellar incision was made, and lateral displacement of the quadriceps-patellar complex allowed for visualization of the femoral intercondylar notch. With a 25-gauge needle, the femoral intramedullary canal was manually reamed. Mature S. aureus biofilm previously established on a 0.6 mm wide/6 mm long Kirschner wire (Synthes) was inserted into the reamed canal, and sutured closed. 48 hours later, mice were euthanized and the infected Kirschner wire implant were extracted, placed in WLBU-2 at 1.0 mg/ml in PBS previously pH adjusted to 6.5, 7.0, 7.2, or 7.4 for 10 minutes, and then placed 1% Tween 20 on ice. Implants were sonicated for 10 minutes. Samples were serially diluted and plated on TSA II with 5% sheep blood CS100 plates for CFU analysis.

[2] = test system: S. aureus SH1000 mature biofilms; assay: S. aureus biofilm implant in vitro killing assay (mature biofilm on Kirschner wire, CFU analysis); type: cell-based, Staphylococcus aureus; conditions: for time to achieve 99.9% reduction of biofilm CFU compared to untreated implant pieces: treated in MHB media
Experimental: (§1) Bacterial strains and culture. S. aureus SH1000 was used for in vitro assays and the PJI animal model. SH1000 was inoculated in Tryptic Soy Broth (TSB, Becton Dickinson and Company) overnight at 37° C. with shaking at 250 rpm. Strains were diluted in Mueller Hinton Broth (MHB; Bectin Dickinson and Company) to a final concentration of 0.5×10^6 CFU/ml using the 0.5 MacFarland Standard (GFS Chemicals) and an Infinite M200 Spectrophotometer (Tecan). WLBU-2 (PLG0206) was supplied by Peptilogics (San Jose, California). All experiments were performed at least in triplicate at three separate times with freshly inoculated cultures.
S. aureus biofilm implant in vitro killing assays. Implant material was prepared from 0.6 mm diameter stainless steel Kirschner wire (Synthes) and cut into 6 mm length, autoclaved, and plated in wells along with SH1000 and all clinical strains at 1×10^6 CFU/ml. After plating, fresh MHB media was exchanged at 24 hours. At 48 hours, wire with mature biofilms were either placed into fresh MHB with either cefazolin or WLBU-2. Biofilms were treated with cefazolin at 0.13, 0.25, 0.5, and 1 mg/ml or WLBU-2 at 62, 125, 250, and 500 μg/ml. Cefazolin treated biofilm were removed 2, 6, and 24 hours after drug addition, WLBU-2 treated biofilm were removed 5 min, 20 min, 60 min, and 2 hours after drug addition. After treatment, Kirschner wires were placed in 1 ml of 1% Tween 20 and sonicated for 10 minutes. Sonicate was serially diluted and plated on TSA II with 5% sheep blood CS100 plates blood agar for colony forming unit (CFU) analysis. For pH analysis, prior to WLBU-2 addition, PBS was adjusted to more acidic pH using hydrochloric acid and more alkaline pH using ammonium hydroxide. Infected implant pieces were tested with WLBU-2 at both 0.5 and 1.0 μg/ml in PBS adjusted to pH of 6.5, 6.8, 7.0, 7.2, 7.4, and 8.0. Biofilm implant pieces were treated at very early time points of 2.5-20 minutes, then CFU analysis was performed.
as §1, with “Becton” for “Bectin”
S. aureus biofilm implant in vitro killing assays. Implant material was prepared from 0.6 mm diameter stainless steel Kirschner wire (Synthes) and cut into 6 mm length, autoclaved, and plated in wells along with SH1000 and all clinical strains at 1×10^6 CFU/ml. After plating, fresh MHB media was exchanged at 24 hours. At 48 hours, wire with mature biofilms were either placed into fresh MHB, normal saline, lactated ringers, or dPBS with fold dilutions of WLBU-2 at 62, 125, 250, 500, and 1000 μg/ml. dPBS solutions were prepared using any combination of the salt buffers listed in Table 3, dissolved in sterile, deionized water. After treatment, Kirschner wires were placed in 1 ml of 1% Tween 20 in dPBS and sonicated for 10 minutes. Sonicate was serially diluted and plated on TSA II with 5% sheep blood CS100 plates blood agar for colony forming unit (CFU) analysis. For pH analysis, prior to WLBU-2 addition, dPBS was adjusted to more acidic pH using hydrochloric acid and more alkaline pH using ammonium hydroxide. Infected implant pieces were tested with WLBU-2 at both 0.5 and 1.0 mg/ml in PBS adjusted to pH of 6.5, 6.8, 7.0, 7.2, 7.4, and 8.0. For ionic strength analysis, dPBS was adjusted to hypertonic conditions by addition of NaCl to dPBS (0.3 M) and hypotonic conditions by addition of deionized water to dPBS (0.08 M). […]

[3] = test system: S. aureus (strain: SH1000); assay: Rabbit periprosthetic joint infection (PJI) model, ex vivo or in vivo treatment at I&D 2 days post infection, implant CFU; set-up: species or system Staphylococcus aureus
Experimental: (§2) A PJI New Zealand White Rabbit Animal model was used. A 3D printed tibia titanium implant was placed in the knee, and inoculated with S. aureus (strain: SH1000, inoculation density 2×10^6) after closure of the arthrotomy.
(§3) The rabbit is anesthetized with ketamine 40 mg/kg and xylazine 2 mg/kg during surgery. A bone tunnel in the tibial canal is created using a drill with a 1.2 mm or 1.6 mm tungsten carbide drill bit. The bone tunnel is then dried and treated to simulate acute human PJI following primary arthroplasty. A 3D printed titanium implant will then be placed in the bone tunnel and the wound closed. Prior to closure of the superficial skin layer, 0.1 mL of 2×10^6 planktonic bacteria (S. aureus; strain: SH1000; CFU/rabbit) in saline is injected into the joint space. A closure is performed, and a biofilm is allowed to become established over 2 days.
After 48 hours, animals were sacrificed and the implants were exposed to either topical cefazolin (10 mg/kg) or topical WLBU2 (1 mg/mL) in PBS (pH 7.4). Implants were sonicated 10 minutes, and colony forming unit (CFU) assay was performed on blood agar plates to quantify bacterial burden.
At 2 days post infection irrigation and debridement (I&D) was performed on the infected joint. Treatment with PLG0206 was administered at 1 mg/mL concentration (ex vivo or in vivo) and 0.5 mg/mL concentration (in vivo) at 15 (ex vivo and in vivo), and 7.5 minutes (in vivo) exposure times. For the ex vivo administration, the implant was removed and exposed to PLG0206 solution in a tube for 15 minutes. For the in vivo administration, irrigation and debridement on the joint was performed followed by PLG0206 treatment. The animals were euthanized after treatment, and the implants removed post mortem.

[4] = test system: S. aureus (strain: SH1000); assay: Rabbit PJI model, I&D with PLG0206 and/or systemic cefazolin, implant and tibia CFU up to Day 28; type: in vivo, Staphylococcus aureus
Experimental: as §2, §3
At 2 days post infection I&D will be performed on the infected joint and treatments will begin. Animals will receive treatment with an I&D alone, I&D with PLG0206, systemic treatment with cefazolin, or both PLG0206 and cefazolin When an animal dies or is sick and needs to be euthanized, the implant and a part of the tibia will be collected post mortem and bacterial burden will be determined by CFU. All surviving animals will be euthanized on Day 28 and the implant and tibia will be collected post mortem for CFU analysis.

WLBU-2: RRWVRRVRRVWRRVVRVVRRWVRR (SEQ ID NO: 10); synthetically engineered cationic antimicrobial peptide (RRWVRRVRRVWRRVVRVVRRWVRR; Antimicrobial peptide WLBU-2)
biofilm CFU on PJI implant compared to No Drug group ([1]; 1.0 mg/ml in PBS pH 7.0, 10 minutes): significant reduction | biofilm CFU on PJI implant compared to No Drug group ([1]; 1.0 mg/ml in PBS pH 7.2, 10 minutes): significant reduction | biofilm CFU on PJI implant compared to No Drug group ([1]; 1.0 mg/ml in PBS pH 7.4, 10 minutes): significant reduction | biofilm CFU on PJI implant, washout with 7.4 pH compared to washout with 6.5 pH ([1]; 1.0 mg/ml in PBS, 10 minutes): significantly less; also recorded: significant reduction | contact time needed to achieve a three-log reduction in biofilm CFU ([2]; 1.0 mg/ml in 6.5 pH PBS): 15 minutes | contact time needed to achieve a three-log reduction in biofilm CFU ([2]; 1.0 mg/ml in 8.0 pH PBS): 2.5 minutes | biofilm CFU after treatment (sterile samples) ([2]; PBS pH 7.4): 0 CFU | biofilm CFU after treatment (sterile samples) ([2]; PBS pH 8.0): 0 CFU | reduction in biofilm CFU ([2]; dPBS at pH 7.5, 10 minutes, 62, 125, 250, 500 and 1000 μg/mL): three-log reduction or greater; also recorded: three-log reduction | reduction in bacterial biofilm ([2]; dPBS, pH 7.0, 62-1000 μg/ml, 10 minutes): over 99.9% | reduction in biofilm CFU ([2]; hypertonic dPBS at pH 7.5, 10 minutes): a three-log reduction was not achieved | biofilm CFU after treatment ([2]; hypotonic dPBS at pH 7.5, 10 minutes, 62, 125, 250, 500 and 1000 μg/mL): 0 CFU | time needed to obtain 0 CFU sterile samples, compared to hypertonic dPBS ([2]; hypotonic dPBS of 0.08 M): less time needed | time needed to obtain a three-log reduction, compared to hypertonic dPBS ([2]; hypotonic dPBS of 0.08 M): less time needed | time to achieve a 99.9% reduction in biofilm CFU ([2]; in buffered PBS, doses of 62-1000 μg/ml): ≤ 20 min | reduction in bacterial biofilm ([2]; lactated ringers, pH 6.5, 62-1000 μg/ml, 10 minutes): over 99.9% | reduction in bacterial biofilm CFUs ([2]; normal saline, measured pH of 5.8, 62-1000 μg/ml, 10 minutes): ~99% | contact time needed to obtain above a 99.9% clearance of biofilms ([2]; pH of the washout solution above 7.0): under 5 minutes | time to achieve 99.9% reduction of biofilm CFU compared to untreated implant pieces [2]: under 2 hours | reduction in bacterial burden in comparison to control ([3]; ex vivo treatment, 1 mg/mL, 15 minutes): greater than 2 log | reduction in bacterial burden, 1 mg/ml for 15 minutes in comparison to 0.5 mg/ml ([3]; in vivo study): significantly greater reduction | reduction in bacterial burden in comparison to control ([3]; in vivo treatment after I&D): greater than 2 log | reduction in bacterial burden ([4]; 1 mg/ml PLG0206 in combination with cefazolin (Group 4)): 2.5 log | bacterial burden in comparison to control ([4]; 1 mg/ml treatment alone (Group 3)): not significant

Cc1nnc(SCC2=C(C(=O)O)N3C(=O)[C@@H](NC(=O)Cn4cnnn4)[C@H]3SC2)s1 [Cefazolin, reference compound]
decrease in biofilm CFU over 6 hours ([2]; MHB, 6 hours): only a modest decrease | time to achieve 99.9% reduction of biofilm CFU compared to untreated implant pieces [2]: over 24 hours | reduction in bacterial burden ([4]; cefazolin treatment alone (Group 2)): 1.5 log
